Tests used:
Lovo xenograft = Lovo xenograft study in nude mice; format: in vivo
HCT116 xenograft = HCT116 xenograft study in nude mice; format: in vivo; conditions: all doses
Description: Tumor volume (mm^3) vs days the graph is indicated in FIG. 6 (a), body weight vs days after injection graph is in FIG. 6 (b), and FIG. 6 (c) is HCT116 Control vs […] image.

HCT116 (MLH1 deficient) = assay: xCELLigence real time cell proliferation/cytotoxicity; conditions: read-out: IC50, cytotoxicity; HCT116, 5, 10, 20 μM, 72 h, RTCA software

Nc1c(/N=N/c2ccc(-c3ccc(/N=N/c4cc(S(=O)(=O)O)c5ccccc5c4N)cc3)cc2)cc(S(=O)(=O)O)c2ccccc12 [Formula II]
Tumor growth (Lovo xenograft): did not affect the tumor growth
Tumor volume (HCT116 xenograft): decreased tumor volume in all doses
IC50 (HCT116 (MLH1 deficient)): 5.19 µM

Source: patent US11883419B2, “DNA polymerase gamma inhibitor and uses thereof” (ACIBADEM MEHMET ALI AYDINLAR UNIVERSITESI, priority 2018, dated 2024)
